Like-named read-outs stand apart in the source and are kept apart here.
What was measured:
RIP1-Tag2 mice = conditions: 100 μL topically once daily
From the text: Trial design was built to assess these primary outcomes: the effects on angiogenesis and tumor growth. Treatment groups randomized as follows:
Each applied topically once daily. Formulations are detailed below:

cysteine cathepsin = conditions: after intra-peritoneal injections; cited from earlier work
[1] = system: MMTV-PyMT-transgenic mouse model; conditions: cited from earlier work
MDA-MB-231/eGFP cells [2] = conditions: Example 14, Ncr nude mice
MDA-MB-231/eGFP cells [3] = system: MDA-MB-231/eGFP cells
LL/2 cells = conditions: SCID-beige mice, 1×10^6 LL/2 cells intravenously; treatment for 120 days
Procedure: In vivo tests were performed as follows: SCID-beige mice aged 6 weeks were injected intravenously with 1×10^6 LL/2 cells.
The treatment groups were:
Group A (Negative Control): Untreated
Volumes of primary tumors were measured twice weekly.

[4] = gross necropsy at end of 120 day survival experiment
[5] = Example 13, Ncr nude mice, gross necropsy at end of 120 day survival experiment

JPM-OEt
reduction in the number of angiogenic islets relative to the Control Group (RIP1-Tag2 mice; at 10.5 weeks of age): 49%
reduction of cumulative tumor volume relative to the Control Group (RIP1-Tag2 mice; at 14.5 weeks of age): 67%
cysteine cathepsin activities in mammary and in lungs (cysteine cathepsin): not significantly affected
cysteine cathepsin activities in pancreas, kidney, and liver (cysteine cathepsin): effective inhibition
activity against early and advanced mammary cancer stages [1]: active

O=C([O-])O.[Na+] [Group B (Oral Buffer, Positive Control), sodium bicarbonate]
% of mice surviving to 120 days (MDA-MB-231/eGFP cells [2]; MDA-MB-231/eGFP orthotopic): 60%
metastatic rate, intestinal (MDA-MB-231/eGFP cells [2]; [4]): 0%
metastatic rate, lung (MDA-MB-231/eGFP cells [2]; [4]): 8%
metastatic rate, lymph node (MDA-MB-231/eGFP cells [2]; [4]): 27%
metastatic rate, mesentery (MDA-MB-231/eGFP cells [2]; [4]): 0%
% of mice surviving to 120 days (MDA-MB-231/eGFP cells [3]; Example 13, Ncr nude mice, MDA-MB-231/eGFP orthotopic): 60%
metastatic rate, intestinal (MDA-MB-231/eGFP cells [3]; [5]): 0%
metastatic rate, lung (MDA-MB-231/eGFP cells [3]; [5]): 8%
metastatic rate, lymph node (MDA-MB-231/eGFP cells [3]; [5]): 27%
metastatic rate, mesentery (MDA-MB-231/eGFP cells [3]; [5]): 0%
primary tumor growth rates (MDA-MB-231/eGFP cells [3]; Example 13, compared among all active groups B, C, D, E): the same
mice surviving to 120 days (LL/2 cells): 20%

Reference: patent publication US20210268122A1, “INHIBITION OF S[…] PROTEIN INHIBITORS OF CYSTEINE PROTEASES” (DYVE BIOSCIENCES, INC., priority 2017, published 2021)
